Data as given in patent US11318107B2, “Pharmaceutical active-containing film delivery device for oral transmucosal administration” (Avior, Inc., priority 2019, dated 2022).
Counter-ions that a name gives are not always drawn.

Columns and labels:
[1] = Solubility of nalmefene HCl in polar solvents at 100 mg/mL; assay type: physicochemical; conditions: test concentration 100 mg/mL
Excerpt: Ethanol, propylene glycol, glycerol, methanol, and water were considered.

[2] = cited from earlier work
[3] = Solubility evaluation of nalmefene in solvent systems; assay type: physicochemical
Protocol: In addition, the solubility of nalmefene in varying concentrations was evaluated using different combinations of solvent systems. The solvent systems included combinations of polar solvents with different surface active agents. The solvent systems provided different volatilization rates. […] Exemplary surface active agents included: Tween 20, Tween 80, Gelucire® 34/44, Kolliphor® HS 15, Solutol® NF, Labrafil® M2125 CS and Labrafil® M1944 CS.

[4] = in vivo; conditions: both, beagle, dog, plasma, iv, 4 mg/animal
[5] = Pharmacokinetic study of nalmefene buccal films and nalmefene IV in beagle dogs (plasma, LC/MS, noncompartmental analysis); conditions: majority of concentrations, after buccal film or IV nalmefene, lower limit of quantitation 0.1 ng/mL

Question: Which “Solubility of Nalmefene HCl Monohydrate” value ([1]; Ethanol NF) does the source give for `C=C1CC[C@@]2(O)[C@H]3Cc4ccc(O)c5c4[C@@]2(CCN3CC2CC2)[C@H]1O5` [Nalmefene HCl Monohydrate] here?
Answer: Partially

Question: What about the “Solubility of Nalmefene HCl Monohydrate” value ([1]; Glycerol USP) of the same molecule?
Answer: Partially

Question: What about the “Solubility of Nalmefene HCl Monohydrate” value ([1]; Methanol) of the same molecule?
Answer: Highly

Question: What about the “Solubility of Nalmefene HCl Monohydrate” value ([1]; Propylene glycol USP) of the same molecule?
Answer: Partially

Question: What about the “Solubility of Nalmefene HCl Monohydrate” value ([1]; Water NF) of the same molecule?
Answer: Moderately high

Question: Which pKa1 ([2]; amine) does the source give for `C=C1CC[C@@]2(O)[C@H]3Cc4ccc(O)c5c4[C@@]2(CCN3CC2CC2)[C@H]1O5` [Nalmefene hydrochloride] here?
Answer: 8.38

Question: What about the “log P” value [2] of the same molecule?
Answer: 2.66

Question: And the Solubility in water ([2]; freely soluble)?
Answer: up to 130 mg/mL

Question: What about the pKa2 ([2]; phenol) of the same molecule?
Answer: 10.00

Question: And the Solubility in chloroform ([2]; slightly soluble)?
Answer: up to 0.13 mg/mL

Question: What does the source list for `C=C1CC[C@@]2(O)[C@H]3Cc4ccc(O)c5c4[C@@]2(CCN3CC2CC2)[C@H]1O5` [nalmefene, 6-methylene-6-deoxy-N-cyclopropylmethyl-14 hydroxydihydronormorphine]?
Answer: Solubility observation ([3]; Ethanol:Water 75:25, nalmefene 200 mg/mL): Completely Soluble,; Solubility observation ([3]; Ethanol:Water:Gelucire 34/14 75:20:5, nalmefene 200 mg/mL): Completely Soluble,; Solubility observation ([3]; Ethanol:Water:Glycerine 70:20:10, nalmefene 300 mg/mL): Completely Soluble,; Solubility observation ([3]; Ethanol:Water:Labrafil M1944 CS 80:17.5:2.5, nalmefene 200 mg/mL): Completely Soluble,; Solubility observation ([3]; Ethanol:Water:Labrafil M2125 OS 80:17.5:2.5, nalmefene 200 mg/mL): Completely Soluble,; Solubility observation ([3]; Ethanol:Water:Propylene Glycol 68:22:10, nalmefene 350 mg/mL): Completely Soluble,; Solubility observation ([3]; Ethanol:Water:Propylene Glycol 82.5:12.5:5, nalmefene 200 mg/mL): Completely Soluble,; Solubility observation ([3]; Ethanol:Water:Propylene Glycol:Tween 80 70:25:4:1, nalmefene 350 mg/mL): Completely Soluble,; Solubility observation ([3]; Ethanol:Water:Tween 20 75:24.5:0.5, nalmefene 250 mg/mL): Completely Soluble,; Vd [4]: 2.77 L/kg; clearance [4]: 46.2 mL/min/kg; half-life [4]: 1.34 h

Question: Which “Nornalmefene (metabolite) plasma concentrations” value [5] does the source give for `C=C1CC[C@@]2(O)[C@H]3Cc4ccc(O)c5c4[C@@]2(CCN3)[C@H]1O5` [nornalmefene] here?
Answer: below the limit of quantitation
